Measured values as given in paper PMC12790360, “Characterization of Non‐Specific Electrostatic Interactions of Cationic Peptides with DNA Origami and Their Functional Consequences” (Small Methods, 2025).
Where two headings read alike, the source gives them in different places. Ends that are not written are not given here. Peptide text beside a SMILES is read from it.

System: ssDNA
Test: Centrifugation-based pull-down (solubility) assay
Format: physicochemical
Procedure: Next, to quantify the propensity of these peptides to induce the aggregation, we developed a centrifugation‐based pull‐down assay (Figure 1e). In this assay, the cationic peptide pulls down the interacting BCN‐free ssDNA, forming large macromolecular aggregates that are sedimented as a pellet. The amount of ssDNA remaining in the soluble supernatant is then determined by measuring its absorbance at 260 nm.^[ [40], [41] ^] […] The soluble fraction for both peptides increased as the NaCl concentration was raised, confirming that the aggregation is driven by electrostatic interactions. […] To determine the soluble fraction of ssDNA after mixing with peptides, the mixtures were prepared as described above and then centrifuged at 16 000 × g for 5 min at room temperature. The supernatants were carefully collected, and the ssDNA concentration was measured by absorbance at 260 nm (OD260) on a NanoDrop spectrophotometer. The soluble fraction was calculated as OD260,supernatant/OD260,initial, where OD260,initial corresponds to the absorbance of the ssDNA reference solution (0.07 mM in 1× TE buffer without peptide or salt).

[1] = BCN-free ssDNA 0.07 mM in 1x TE, tenfold molar excess peptide, varying NaCl, 16 000 x g 5 min room temperature, OD260 supernatant/initial, n = 3

Compound | Soluble ssDNA fraction in supernatant after centrifugation with peptide [1] | Soluble ssDNA fraction in supernatant after centrifugation with peptide
SSSHPIFHRGEFSV [NP5] | weaker aggregation tendencies compared with CP1 and CP2 | –
ISQAVHAAHAEINEAGR [AP3] | – | weaker aggregation tendencies compared with CP1 and CP2
EQLESIINFEKLTEWT [AP2] | – | highly soluble across all conditions
PKKKR [CP5, brain-derived neurotrophic factor (BDNF) mimic peptide, cyclic, cationic, net charge +3] | weaker aggregation tendencies compared with CP1 and CP2 | –
GGGSEEEYRSRKYSSWYVALKR [CP2] | salt‐dependent solubility | –
CC[C@H](C)[C@H](NC(=O)[C@@H](NC(=O)[C@H](CC(C)C)NC(=O)[C@H](CO)NC(=O)[C@H](Cc1c[nH]cn1)NC(=O)[C@@H](NC(=O)[C@@H](NC(=O)CNC(=O)[C@H](Cc1c[nH]cn1)NC(=O)[C@H](CCCNC(=N)N)NC(=O)[C@H](CCCNC(=N)N)NC(=O)[C@H](CCSC)NC(=O)[C@H](CCC(=O)O)NC(=O)[C@H](Cc1ccc(O)cc1)NC(=O)[C@H](CCCCN)NC(=O)[C@H](CC(N)=O)NC(=O)CNC(=O)[C@@H]1CCCN1C(=O)[C@H](CS)NC(=O)[C@H](CC(C)C)NC(=O)[C@H](CCC(=O)O)NC(=O)[C@@H](NC(=O)CNC(=O)[C@H](CCC(=O)O)NC(=O)[C@@H](N)CCCNC(=N)N)C(C)C)[C@@H](C)O)[C@@H](C)O)C(C)C)C(=O)N[C@@H](Cc1c[nH]cn1)C(=O)N[C@@H](CC(=O)O)C(=O)O [NP1] | weaker aggregation tendencies compared with CP1 and CP2 | –
CC[C@H](C)[C@H](NC(=O)[C@H](CCCCN)NC(=O)[C@H](CCC(N)=O)NC(=O)[C@H](CC(N)=O)NC(=O)[C@H](CS)NC(=O)[C@H](C)NC(=O)[C@H](C)NC(=O)CNC(=O)[C@H](CCCNC(=N)N)NC(=O)[C@H](Cc1c[nH]c2ccccc12)NC(=O)CNC(=O)[C@@H]1CCCN1C(=O)[C@H](CCCNC(=N)N)NC(=O)[C@@H](N)CS)C(=O)N[C@@H](CC(C)C)C(=O)O [CP4] (H-CRPGWRGAACNQKIL-OH) | highly soluble across all conditions | –
YRSRKYSSWYVALKR [CP1] | salt‐dependent solubility | –
RGIDKRHWNSQ [CP3] | weaker aggregation tendencies compared with CP1 and CP2 | –
KLTWQELYQLKYKGI [CP6] | weaker aggregation tendencies compared with CP1 and CP2 | –
